# Experimental data reported in US20230027361A1, “METTL3 MODULATORS” (priority 2019, published 2023).
# Where two headings read alike, the source gives them in different places.
# Experiments:
# [1] = tested on: m6A in cellular mRNA of MOLM-13 cells; assay: m6A-mRNA LC-MS/MS Assay (m6A cellular assay); assay type: cell-based; settings: Homo sapiens
# Method: Cells were harvested by centrifugation followed by mRNA extraction using DIRECT Dynabeads mRNA DIRECT kit (Life Technologies). mRNA was quantified on NanoDrop spectrophotometer (Thermo Fisher Scientific) and digested into single nucleosides using Nucleoside Digestion Mix (New England Biolabs). […] Quantification is performed in comparison with the standard curve, obtained from pure nucleoside standards (Selleck Chemicals) running with the same batch of samples. Percentage m^6A in cellular mRNA is calculated as 100*(m^6A/A).
# METTL1/WDR4 = METTL1/WDR4 (Homo sapiens, UniProt Q9UBP6); assay: METTL1 Assay (METTL1 biochemical assay)
# Method in brief: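 Radiometric methyltransfer by METTL1/WDR4 (6.25 nM f.c., 5 min preincubation) at ambient temperature in HEPES pH 7.5, KCl, MgCl2, DTT; started with 25 nM 3′-biotinylated RNA and 60 nM 3H-SAM, run 20 min, quenched with 15 μM cold SAM. Product captured on streptavidin flashplates (2 h, 25° C), counted by scintillation.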
# METTL3/METTL14 = METTL3/METTL14 (Homo sapiens, UniProt Q86U44); assay: METTL3-14 Standard Enzyme Assay (METTL3 biochemical assay)
# Method in brief: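 Tritium transfer from ³H-SAM (100 nM) to biotinylated RNA (100 nM) captured on streptavidin flashplates and counted by scintillation. Enzyme complex (2.5 nM) with compound, 5 min preincubation, 30 min reaction at ambient temperature, HEPES pH 7.5 buffer, stopped by excess unlabeled SAM.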
# PRMT5-MEP50 = PRMT5-MEP50 (Homo sapiens, UniProt O14744); assay: PRMT5 Assay (PRMT5 biochemical assay)
# Method in brief: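 Radiometric methyltransferase read-out: after 60 min reaction, excess unlabelled SAM (15 μM) stops turnover and biotinylated H4 peptide (100 nM) carrying 3H-methyl from 250 nM 3H-SAM is captured on streptavidin flashplates (2 h, 25° C) for scintillation counting. Enzyme, 2.5 nM PRMT5-MEP50, was preincubated 5 min with compound in pH 8.0 Tris buffer with DTT and Tween.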
# MOLM-13 cells = assay: MOLM-13 96 Hour Cell Proliferation Assay; assay type: cell-based; settings: Homo sapiens
# Method in brief: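 MOLM-13 cells in RPMI 1640 with 10% FBS were plated overnight at 37 °C, then exposed to compound dilutions at 0.25% DMSO final for 96 h. Viability was read by CellTiter-Glo luminescence, normalised to staurosporine (100% death) and DMSO (0% death) controls, and IC50 was fitted by 4-parameter logistic regression.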
# METTL16 = target: T1, METTL16 (Homo sapiens, UniProt Q86W50); assay: METTL16 Assay (METTL16 biochemical assay); settings: read-out: METTL16 IC50
# T1 sequence (Q86W50 1-562): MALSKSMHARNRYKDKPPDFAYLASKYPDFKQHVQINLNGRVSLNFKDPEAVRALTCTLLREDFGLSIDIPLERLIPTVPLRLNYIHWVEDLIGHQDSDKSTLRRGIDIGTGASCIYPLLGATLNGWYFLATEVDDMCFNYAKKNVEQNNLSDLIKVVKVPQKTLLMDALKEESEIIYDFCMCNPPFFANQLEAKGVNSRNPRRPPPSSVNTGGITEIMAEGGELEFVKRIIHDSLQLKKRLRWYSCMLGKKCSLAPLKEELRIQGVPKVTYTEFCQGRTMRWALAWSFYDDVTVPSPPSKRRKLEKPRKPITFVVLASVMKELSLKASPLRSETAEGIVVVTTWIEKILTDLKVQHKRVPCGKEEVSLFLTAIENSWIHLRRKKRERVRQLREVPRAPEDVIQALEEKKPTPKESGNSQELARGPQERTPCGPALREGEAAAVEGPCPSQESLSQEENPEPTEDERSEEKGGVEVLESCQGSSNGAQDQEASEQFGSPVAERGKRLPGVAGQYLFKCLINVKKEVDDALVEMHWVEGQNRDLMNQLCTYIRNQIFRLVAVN
# Method: Assays were performed in a 25 μl-volume in 384-well V-bottom polypropylene microplates (Greiner Bio-One, cat. No. 781280) at ambient temperature. Optimized 1× assay buffer was 20 mM HEPES pH 7.5, 50 mM KCl, 1 mM DTT, 0.01% Tween, 0.01% BSG, 0.004 U/μl RNAseOUT (cat. No. 10777019, ThermoFisher Scientific, Waltham, Mass.). For compound screening METTL16 (final concentration, f.c.=100 nM) was added using a Multidrop Combi (ThermoFisher Scientific, Waltham, Mass.) and preincubated for 5 min. Reactions were started by adding 3′ biotinylated RNA ([…]-biotin) (f.c.=50 nM), 3H-SAM (f.c.=200 nM) and non-radiolabeled SAM (f.c.=800 nM) substrates. Reactions proceeded for 20 minutes and were quenched with excess non-radioactive SAM (f.c.=100 μM). The reactions were then transferred to streptavidin-coated flashplates and incubated for 2 hours at 25° C. Following two washing cycles with 0.1% Tween-20, the plates were sealed and read on a TopCount (PerkinElmer, Waltham, Mass.) plate-based scintillation counter. For determination of kinetic parameters, reaction times were optimized so that measurements were taken during the initial velocity phase of the reaction.
# [2] = METTL1 biochemical assay, read-out: METTL1 IC50
# [3] = METTL3 biochemical assay, read-out: METTL3 IC50
# [4] = PRMT5 biochemical assay, read-out: PRMT5 IC50
# [5] = read-out: METTL3 IC50, METTL3 biochemical assay
# [6] = read-out: PRMT5 IC50, PRMT5 biochemical assay
# [7] = read-out: METTL1 IC50, METTL1 biochemical assay
# Chain of METTL3/METTL14 (Q86U44 whole entry, species assumed): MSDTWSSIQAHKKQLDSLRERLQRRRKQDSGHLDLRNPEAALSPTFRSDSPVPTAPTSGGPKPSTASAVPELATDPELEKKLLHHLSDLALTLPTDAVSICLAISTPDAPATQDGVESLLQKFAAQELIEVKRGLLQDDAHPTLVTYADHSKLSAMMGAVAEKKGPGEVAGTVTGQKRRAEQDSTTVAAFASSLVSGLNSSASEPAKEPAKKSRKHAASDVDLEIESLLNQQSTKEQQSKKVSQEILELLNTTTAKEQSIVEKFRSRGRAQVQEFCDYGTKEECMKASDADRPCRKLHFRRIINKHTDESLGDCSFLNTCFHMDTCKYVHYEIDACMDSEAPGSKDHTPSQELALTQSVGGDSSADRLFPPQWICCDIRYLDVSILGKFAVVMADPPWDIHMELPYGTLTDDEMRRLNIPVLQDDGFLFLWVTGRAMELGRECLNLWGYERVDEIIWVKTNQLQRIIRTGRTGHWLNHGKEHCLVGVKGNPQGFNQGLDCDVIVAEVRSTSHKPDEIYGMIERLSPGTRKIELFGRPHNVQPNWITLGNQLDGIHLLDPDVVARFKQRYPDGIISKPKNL
# Chain of METTL3/METTL14 (Q9HCE5 whole entry partner, species assumed): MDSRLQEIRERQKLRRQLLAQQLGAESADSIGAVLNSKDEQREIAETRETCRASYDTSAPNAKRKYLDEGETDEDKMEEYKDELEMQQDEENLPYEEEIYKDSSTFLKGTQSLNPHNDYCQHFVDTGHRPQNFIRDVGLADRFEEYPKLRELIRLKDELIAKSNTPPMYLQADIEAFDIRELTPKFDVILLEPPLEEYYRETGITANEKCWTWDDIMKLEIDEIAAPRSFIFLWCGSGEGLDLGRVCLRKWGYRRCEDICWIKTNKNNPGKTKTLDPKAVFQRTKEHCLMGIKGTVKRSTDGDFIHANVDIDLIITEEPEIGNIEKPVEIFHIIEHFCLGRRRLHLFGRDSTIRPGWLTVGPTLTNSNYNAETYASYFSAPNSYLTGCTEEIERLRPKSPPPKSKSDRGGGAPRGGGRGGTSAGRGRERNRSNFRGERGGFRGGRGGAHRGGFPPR
# Chain of METTL1/WDR4 (Q9UBP6 whole entry, species assumed): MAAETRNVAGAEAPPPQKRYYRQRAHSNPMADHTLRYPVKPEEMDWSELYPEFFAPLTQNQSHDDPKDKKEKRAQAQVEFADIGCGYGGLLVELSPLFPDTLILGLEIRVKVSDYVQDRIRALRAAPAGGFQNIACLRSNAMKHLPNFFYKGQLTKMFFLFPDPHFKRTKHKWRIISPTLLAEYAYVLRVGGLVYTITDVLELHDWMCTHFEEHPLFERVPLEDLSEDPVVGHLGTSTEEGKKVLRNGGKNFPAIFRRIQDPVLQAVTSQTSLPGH
# Chain of METTL1/WDR4 (P57081 whole entry partner, species assumed): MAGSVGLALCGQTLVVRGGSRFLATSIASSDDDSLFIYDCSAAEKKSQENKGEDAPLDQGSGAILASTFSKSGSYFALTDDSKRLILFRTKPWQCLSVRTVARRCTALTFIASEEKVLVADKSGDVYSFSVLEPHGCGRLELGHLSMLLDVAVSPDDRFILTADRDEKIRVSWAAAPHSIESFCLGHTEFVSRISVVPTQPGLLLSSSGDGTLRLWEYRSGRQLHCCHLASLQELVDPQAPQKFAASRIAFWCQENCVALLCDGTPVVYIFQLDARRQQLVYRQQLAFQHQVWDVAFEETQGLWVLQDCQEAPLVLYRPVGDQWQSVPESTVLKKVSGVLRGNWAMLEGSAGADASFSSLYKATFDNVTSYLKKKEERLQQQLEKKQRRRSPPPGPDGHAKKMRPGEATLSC
# Chain of PRMT5-MEP50 (O14744 whole entry): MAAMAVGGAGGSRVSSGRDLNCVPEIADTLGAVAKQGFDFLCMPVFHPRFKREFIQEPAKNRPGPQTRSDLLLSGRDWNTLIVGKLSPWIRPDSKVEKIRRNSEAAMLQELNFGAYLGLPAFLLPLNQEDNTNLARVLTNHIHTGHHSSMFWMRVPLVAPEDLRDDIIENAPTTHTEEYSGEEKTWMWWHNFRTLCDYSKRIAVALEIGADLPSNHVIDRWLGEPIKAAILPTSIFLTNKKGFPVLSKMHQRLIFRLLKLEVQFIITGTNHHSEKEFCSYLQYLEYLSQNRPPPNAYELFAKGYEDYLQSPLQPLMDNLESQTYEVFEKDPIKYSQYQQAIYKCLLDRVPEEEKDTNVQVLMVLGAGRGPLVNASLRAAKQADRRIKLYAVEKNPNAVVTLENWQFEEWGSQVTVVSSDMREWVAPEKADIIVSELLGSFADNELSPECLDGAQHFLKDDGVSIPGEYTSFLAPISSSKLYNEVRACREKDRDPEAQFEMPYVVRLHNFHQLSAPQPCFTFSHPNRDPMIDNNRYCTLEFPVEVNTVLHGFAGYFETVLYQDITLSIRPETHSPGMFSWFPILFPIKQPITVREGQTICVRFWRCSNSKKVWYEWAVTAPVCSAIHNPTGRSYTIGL
# Chain of PRMT5-MEP50 (Q9BQA1 whole entry partner): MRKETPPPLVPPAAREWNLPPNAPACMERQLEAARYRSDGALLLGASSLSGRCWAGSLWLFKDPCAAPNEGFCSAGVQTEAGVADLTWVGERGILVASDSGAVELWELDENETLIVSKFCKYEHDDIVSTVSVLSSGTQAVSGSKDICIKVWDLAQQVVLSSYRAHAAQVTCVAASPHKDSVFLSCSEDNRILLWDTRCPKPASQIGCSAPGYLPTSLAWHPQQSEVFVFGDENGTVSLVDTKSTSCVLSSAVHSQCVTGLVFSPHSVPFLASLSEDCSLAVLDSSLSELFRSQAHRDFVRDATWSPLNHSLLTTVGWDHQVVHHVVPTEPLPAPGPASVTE
SMILES,IC50 (METTL3/METTL14; [3]) [nM],IC50 (PRMT5-MEP50; [4]) [nM],IC50 (METTL1/WDR4; [7]) [nM],IC50 (METTL16) [nM],other results
CCNc1ccc2ccc(OC[C@H]3O[C@@H](n4ccc5c(N)ncnc54)[C@@H](F)[C@@H]3O)cc2n1 [I-5],< 10,10 to 100,–,–,"IC50 ([1]; MOLM-13, m6A cellular assay, read-out: m^6A IC50): 1000 to 10000 nM; IC50 (METTL1/WDR4; [2]): > 1000 nM"
CNc1ccc2ccc(OC[C@H]3O[C@@H](n4cc(-c5ccn(C)n5)c5c(N)ncnc54)[C@H](O)[C@@H]3O)cc2n1 [I-6],–,–,–,–,"IC50 ([1]; MOLM-13, read-out: m^6A IC50): < 1000 nM; IC50 (METTL1/WDR4; [2]): > 1000 nM; IC50 (METTL3/METTL14; [5]): < 10 nM; IC50 (PRMT5-MEP50; [6]): < 10 nM"
CCNc1ccc2ccc(OC[C@H]3O[C@@H](n4cc(C5CCCC5)c5c(N)ncnc54)[C@H](O)[C@@H]3O)cc2n1 [I-8],< 10,< 10,> 1000,–,"IC50 ([1]; MOLM-13, read-out: m^6A IC50): < 1000 nM"
CNc1ccc2ccc(OC[C@H]3O[C@@H](n4cc(-c5ccccn5)c5c(N)ncnc54)[C@@H](F)[C@@H]3O)cc2n1 [I-9],–,–,–,–,"IC50 ([1]; MOLM-13, read-out: m^6A IC50): 1000 to 10000 nM; IC50 (METTL1/WDR4; [2]): > 1000 nM; IC50 (METTL3/METTL14; [5]): < 10 nM; IC50 (PRMT5-MEP50; [6]): 10 to 100 nM"
Nc1ccnc2cc(OC[C@H]3O[C@@H](n4cc(Br)c5c(N)ncnc54)[C@@H](F)[C@@H]3O)ccc12 [I-13],100 to 1000,10 to 100,–,> 1000,"IC50 (MOLM-13 cells; MOLM-13, 96 h): > 10000 nM"
Cc1cc(N)c2ccc(OC[C@H]3O[C@@H](n4cc(Br)c5c(N)ncnc54)C[C@@H]3O)cc2n1 [I-19],100 to 1000,100 to 1000,> 1000,> 1000,"IC50 (MOLM-13 cells; MOLM-13, 96 h): > 10000 nM"
CNc1ccc2ccc(OC[C@H]3O[C@@H](n4cc(C(F)(F)F)c5c(N)ncnc54)[C@@H](F)[C@@H]3O)cc2n1 [I-38],10 to 100,100 to 1000,> 1000,> 1000,–
CNc1ccc2ccc(OC[C@H]3O[C@@H](n4cc(-c5cccnc5)c5c(N)ncnc54)[C@@H](F)[C@@H]3O)cc2n1 [I-40],–,–,–,> 1000,IC50 (METTL1/WDR4; [2]): > 1000 nM; IC50 (METTL3/METTL14; [5]): 10 to 100 nM; IC50 (PRMT5-MEP50; [6]): 100 to 1000 nM
CNc1ccc2ccc(OC[C@H]3O[C@@H](n4cc(Br)c5c(N)nccc54)[C@@H](F)[C@@H]3O)cc2n1 [I-41],100 to 1000,100 to 1000,> 1000,> 1000,–
CNc1ccc2ccc(OC[C@H]3O[C@@H](n4cc(-c5cc(F)cc(F)c5)c5c(N)ncnc54)[C@@H](F)[C@@H]3O)cc2n1 [I-43],–,–,–,> 1000,IC50 (METTL1/WDR4; [2]): > 1000 nM; IC50 (METTL3/METTL14; [5]): 100 to 1000 nM; IC50 (PRMT5-MEP50; [6]): 100 to 1000 nM
CNc1ccc2ccc(OC[C@H]3O[C@@H](n4cc(C)c5c(N)ncnc54)[C@@H](F)[C@@H]3O)cc2n1 [I-44],10 to 100,10 to 100,> 1000,> 1000,–
CNc1ccc2ccc(OC[C@H]3C[C@@H](n4cc(C5CCCC5)c5c(N)ncnc54)C[C@@H]3O)cc2n1 [I-50],10 to 100,100 to 1000,> 1000,> 1000,–
CCNc1ccc2ccc(OC[C@H]3O[C@@H](n4ccc5c(N)ncnc54)[C@H](O)[C@@H]3O)cc2n1 [I-67],< 10,< 10,> 1000,> 1000,–
Nc1ncnc2c1ccn2[C@@H]1O[C@H](CCc2ccc3ccc(N4CCCC4)nc3c2)[C@@H](O)[C@H]1O [I-68],10 to 100,100 to 1000,> 1000,> 1000,"IC50 (MOLM-13 cells; MOLM-13, 96 h): 1000 to 10000 nM"
CNc1ccc2cc(OC[C@H]3O[C@@H](n4cc(Br)c5c(N)ncnc54)[C@H](O)[C@@H]3O)ccc2n1 [I-69],10 to 100,10 to 100,–,> 1000,IC50 (METTL1/WDR4; [2]): > 1000 nM
Nc1ccc2ccc(OC[C@H]3O[C@@H](n4cc(Br)c5c(N)ncnc54)[C@H](O)[C@@H]3O)cc2n1 [I-71],10 to 100,< 10,> 1000,> 1000,–
Nc1ncnc2c1c(Br)cn2[C@@H]1O[C@H](COc2ccc3ccc(N4CCCC4)nc3c2)[C@@H](O)[C@H]1O [I-72],10 to 100,10 to 100,> 1000,> 1000,–
CNc1ccc2cnc(OC[C@H]3O[C@@H](n4cc(Br)c5c(N)ncnc54)[C@H](O)[C@@H]3O)nc2n1 [I-74],> 1000,100 to 1000,> 1000,> 1000,"IC50 (MOLM-13 cells; MOLM-13, 96 h): > 10000 nM"
Nc1ncnc2c1ccn2[C@@H]1C[C@H](COc2ccc3ccc(N4CCCC4)nc3c2)[C@@H](O)[C@H]1O [I-82],100 to 1000,100 to 1000,> 1000,> 1000,–
Nc1ncnc2c1ccn2[C@@H]1C[C@H](CCc2ccc3ccc(N4CCCC4)nc3c2)[C@@H](O)[C@H]1O [I-83],100 to 1000,10 to 100,> 1000,> 1000,–
Cc1cn2ccc(CC[C@H]3C[C@@H](n4ccc5c(N)ncnc54)[C@H](O)[C@@H]3O)cc2n1 [I-84],> 1000,< 10,–,> 1000,IC50 (METTL1/WDR4; [2]): > 1000 nM
CNc1ccc2ccc(OC[C@@H]3C[C@@H](O)[C@H](n4cc(C5CCCC5)c5c(N)ncnc54)O3)cc2n1 [I-141],100 to 1000,100 to 1000,> 1000,> 1000,–
"Cn1ccc(-c2cn([C@@H]3C[C@H](COc4ccc5ccc(N6CCC6)nc5c4)[C@@H](O)C3)c3ncnc(N)c23)n1 [I-169, (1S,2R,4R)-4-[4-amino-5-(1-methyl-1H-pyrazol-3-yl)-7H-pyrrolo[2,3-d]pyrimidin-7-yl]-2-({[2-(azetidin-1-yl)quinolin-7-yl]oxy}methyl)cyclopentan-1-ol]",–,–,–,–,"IC50 (MOLM-13 cells): 1000 to 10000 nM; IC50 ([1]; MOLM-13, read-out: m^6A IC50): 1000 to 10000 nM; IC50 (METTL3/METTL14): < 10 nM; IC50 (PRMT5-MEP50): > 1000 nM"
Cn1ccc(-c2cn([C@@H]3C[C@H](CCc4ccc5ccc(N6CCC6)nc5c4)[C@@H](O)C3)c3ncnc(N)c23)n1 [I-205],–,–,–,–,"IC50 (MOLM-13 cells): < 1000 nM; IC50 ([1]; MOLM-13, read-out: m^6A IC50): 1000 to 10000 nM; IC50 (METTL3/METTL14): < 10 nM; IC50 (PRMT5-MEP50): > 1000 nM"
Cc1ccn(-c2cn([C@@H]3O[C@H](COc4ccc5ccc(N6CCC6)nc5c4)[C@@H](O)[C@@H]3F)c3ncnc(N)c23)n1 [I-218],–,–,–,–,"IC50 (MOLM-13 cells): 1000 to 10000 nM; IC50 ([1]; MOLM-13, read-out: m^6A IC50): 1000 to 10000 nM; IC50 (METTL3/METTL14): < 10 nM; IC50 (PRMT5-MEP50): > 1000 nM"
CNc1ccc2ccc(OC[C@H]3O[C@@H](n4ccc5c(N)nc(C(=O)OC)nc54)[C@@H](F)[C@@H]3O)cc2n1 [I-223],> 1000,> 1000,–,> 1000,IC50 (METTL1/WDR4): > 1000 nM
